Activity calls are given as the source filed them. The rule behind the calls is not given here. Where only a bound is given, the exact number is not on record here.

Data set [1] relates to Leishmania donovani. As to the kind of experiment: Reduction in free cytoplasmic ATP level in promastigote form of Leishmania donovani 3-Luc at 2.5 to 25 uM after 15 to 20 mins by luminescence assay. The data set is classed as functional, organism-based.
The subject of data set [2] is Leishmania donovani. Kind of data set: Induction of morphological damage in promastigote form of Leishmania donovani MHOM/ET/67/L82 assessed as accumulation of vesicular material inside the flagellar pocket at 5 uM after 4 hrs by transmission electron microscopy. The data set is classed as functional, organism-based.
In data set [3] the target is Trypanothione reductase (Trypanosoma brucei brucei) (UniProt P39051). As to the kind of experiment: Inhibition of Trypanosoma brucei TR using 40 to 100 uM trypanothione disulfide assessed as remaining activity at 5 uM.
Trypanothione reductase (Trypanosoma brucei brucei), sequence (P39051 whole entry, looked up): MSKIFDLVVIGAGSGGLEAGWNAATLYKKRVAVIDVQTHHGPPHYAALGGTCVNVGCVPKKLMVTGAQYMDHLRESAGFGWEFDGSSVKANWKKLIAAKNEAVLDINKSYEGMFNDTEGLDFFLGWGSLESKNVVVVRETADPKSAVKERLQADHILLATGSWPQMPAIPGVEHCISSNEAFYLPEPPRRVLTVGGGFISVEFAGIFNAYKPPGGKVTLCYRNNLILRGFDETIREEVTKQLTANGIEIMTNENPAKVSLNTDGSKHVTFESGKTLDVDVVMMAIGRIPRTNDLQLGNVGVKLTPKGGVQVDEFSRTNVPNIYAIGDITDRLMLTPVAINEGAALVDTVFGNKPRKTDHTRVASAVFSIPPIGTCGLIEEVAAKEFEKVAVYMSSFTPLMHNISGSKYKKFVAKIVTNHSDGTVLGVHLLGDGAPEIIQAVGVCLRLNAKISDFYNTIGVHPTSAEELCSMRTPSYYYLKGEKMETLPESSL
Data set [4] has as its target T1, Trypanothione reductase (Trypanosoma brucei brucei, UniProt P39051). As to the kind of experiment: Mixed type inhibition of Trypanosoma brucei TR using varying levels of trypanothione disulfide assessed as inhibition constant for enzyme-inhibitor complex by Lineweaver-Burk plot.
The nature of data set [5]: Selectivity index, ratio of IC50 for rat L6 cells to IC50 for trypomastigote form of Trypanosoma brucei rhodesiense strain STIB 900. It is filed as toxicity, cell-based. As to conditions: read-out: Ratio IC50.
Data set [6] concerns Leishmania donovani. Kind of data set: Antitrypanosomal activity against axenic amastigote form of Leishmania donovani MHOM-ET-67/L82 assessed as growth inhibition after 72 hrs by inverted microscopy. Particulars: MHOM-ET-67/L82, 72 h. It is filed as functional, organism-based.
Data set [7] has as its target T1, Trypanothione reductase. Kind of data set: Mixed type inhibition of Trypanosoma brucei TR using varying levels of trypanothione disulfide assessed as inhibition constant for enzyme-substrate-inhibitor complex by Lineweaver-Burk plot.
A short description of data set [8]: Selectivity index, ratio of IC50 for rat L6 cells to IC50 for promastigote form of Leishmania donovani strain MHOM/SD/00/1S-2D. It is filed as toxicity, cell-based. Particulars: read-out: Ratio IC50.
Data set [9] in a line: Selectivity index, ratio of IC50 for rat L6 cells to IC50 for intracellular amastigote form of Trypanosoma cruzi Tulahuen strain C2C4. The data set is classed as toxicity, cell-based. As to conditions: read-out: Ratio IC50.
Data set [10] in a line: Selectivity index, ratio of IC50 for rat L6 cells to IC50 for axenic amastigote form of Leishmania donovani strain MHOM-ET-67/L82. The data set is classed as toxicity, cell-based. Particulars: read-out: Ratio IC50.
For data set [11], the target named is Trypanothione reductase (Trypanosoma brucei brucei) (UniProt P39051). As to the kind of experiment: Induction of intrinsic oxidase activity of Trypanosoma brucei TR at 5 uM.
The subject of data set [12] is Trypanosoma brucei rhodesiense. Kind of data set: Antitrypanosomal activity against trypomastigote form of Trypanosoma brucei rhodesiense STIB 900 assessed as growth inhibition after 72 hrs by microplate fluorometry. It is filed as functional, organism-based. As to conditions: STIB 900, 72 h.
For data set [13], the system named is L6. As to the kind of experiment: Cytotoxicity against rat L6 cells assessed as growth inhibition after 72 hrs by inverted microscopy. The data set is classed as cell-based. Particulars: L6, 72 h.
Data set [14] has as its system Leishmania donovani. As to the kind of experiment: Reduction in mitochondrial electrochemical potential in promastigote form of Leishmania donovani MHOM/ET/67/L82 assessed as reduction in Rhodamine 123 fluorescence at 25 uM after 4 hrs by flow cytometry. The data set is classed as functional, organism-based. In general terms: In flow cytometry, cells or beads pass a laser one at a time.

Data set [15] addresses T1, Trypanothione reductase. Kind of data set: Noncompetitive inhibition of Trypanosoma brucei TR using varying levels of trypanothione disulfide by Lineweaver-Burk plot.
The test system of data set [16] is Trypanosoma cruzi. As to the kind of experiment: Antitrypanosomal activity against intracellular amastigote form of Trypanosoma cruzi Tulahuen C2C4 infected in rat L6 cells assessed as growth inhibition after 92 hrs by inverted microscopy. It is filed as functional, organism-based. As to conditions: Tulahuen C2C4, L6, 92 h.
For data set [17], the system named is Leishmania donovani. Kind of data set: Antitrypanosomal activity against promastigote form of Leishmania donovani MHOM/SD/00/1S-2D assessed as growth inhibition after 72 hrs by inverted microscopy. The data set is classed as functional, organism-based.
The subject of data set [18] is Leishmania donovani. As to the kind of experiment: Induction of morphological damage in promastigote form of Leishmania donovani MHOM/ET/67/L82 assessed as mitochondrial swelling at 5 uM after 4 hrs by transmission electron microscopy. It is filed as functional, organism-based.

T1 sequence (P39051 whole entry): as the sequence (P39051 whole entry, looked up) above

Turning to `NCCCCCNCc1ccc(OC2=CC(=O)c3cc4ccccc4cc3C2=O)cc1`, the Activity entry in data set [1] is “Dose-dependent effect”; in data set [3], 36%. Besides, the outcome in data set [2] and in data set [14] was Active. Also, the Ki (in general, the equilibrium dissociation constant of an inhibitor or competing ligand from its target) in data set [4] stood at 3.4 µM; in data set [7], 3.9 µM; in [15] it was 3.4 µM. Further, the selectivity ratio is 72 in data set [5], 1.39 in [8], 0.29 in [9] and 2.06 in data set [10]. The IC50 (usually the concentration that gives 50% inhibition) in data set [6] was 2.44 µM; in data set [12], 0.07 µM; in data set [13], 5.04 µM; in data set [16], 17.4 µM; in [17], 3.62 µM. Besides, the outcome in data set [11] was inactive.
As for `NCCCCNCc1ccc(OC2=CC(=O)c3ccccc3C2=O)cc1`, the selectivity ratio in data set [5] stood at 50.5; in data set [8], 1.27; in data set [9], 0.37; in data set [10] it was 1.63. Further, the half-maximal inhibitory concentration (IC50) in data set [6] was 6.81 µM; in data set [12], 0.22 µM; in data set [13] it was 11.1 µM; in data set [16] it was 30 µM; in data set [17], 8.72 µM.
For the compound `NCCCNCCCNCCCNCc1ccc(OC2=CC(=O)c3cc4ccccc4cc3C2=O)cc1`, the selectivity ratio in [5] was 20.3; in data set [8], 0.53; in data set [9], 0.29; in [10] it was 2.03. For the same compound, the IC50 stood at 2.4 µM in data set [6]; 0.24 µM in data set [12]; 4.87 µM in data set [13]; 17.4 µM in data set [16]; 9.08 µM in data set [17].
For the compound `NCCCCCNCc1ccc(OC2=CC(=O)c3ccccc3C2=O)cc1`, in data set [3], the Activity worked out at 36%. Besides, the figures for the Ki in data set [4] and in [7] were 2.8 µM and 4.6 µM, respectively. The selectivity ratio in data set [5] was determined as 35; in [8], 1.18; in data set [9], 0.45; in data set [10] it was 1.37. For the same compound, the half-maximal inhibitory concentration (IC50) in [6] amounted to 6.63 µM; in [12], 0.26 µM; in data set [13], 9.1 µM; in data set [16], 20 µM; in data set [17], 7.72 µM. Besides, in data set [11], the result was Active.
Consider `Nc1nc(N)nc(Nc2ccc([As]3SCC(CO)S3)cc2)n1` (stereo unspecified) [MELARSOPROL], for which, in [5], the selectivity ratio turned out to be 1830. Also, in data set [13], the IC50 turned out to be 18.3 µM.
For the compound `COc1cc([C@@H]2c3cc4c(cc3[C@H](O)[C@H]3COC(=O)[C@H]23)OCO4)cc(OC)c1OC` [PODOFILOX], the half-maximal inhibitory concentration (IC50) in data set [13] is 0.0017 µM.
Take `O=C1C=C(Oc2ccccc2)C(=O)c2cc3ccccc3cc21`: the Activity result in [1] was “Dose-dependent effect”; in [3], 51%. In addition, the selectivity ratio in data set [5] was determined as 19.8; in data set [8] it was 0.35; in [9] it was 0.21; in [10] it was 2.91. The outcome in data set [18] and in data set [14] was Active. For the same compound, the values for the half-inhibitory concentration (IC50) in data set [16] and in [17] were 4.66 µM and 2.81 µM, respectively.
As for `NCCCNCCCCNCCCNCc1ccc(OC2=CC(=O)c3ccccc3C2=O)cc1`, the Activity in data set [3] came out at 36%. The selectivity ratio is 15.7 in [5], < 0.23 in data set [8], 0.29 in data set [9] and 1.22 in [10]. Moreover, the IC50 in [6] was 5.79 µM; in data set [12] it was 0.45 µM; in [13], 7.05 µM; in data set [16] it was 24.1 µM; in data set [17] it was > 30 µM. Further, the result in data set [11] was Active.
As for `NCCCNCCCNCCCNCc1ccc(OC2=CC(=O)c3ccccc3C2=O)cc1`, the selectivity ratio in [5] is 14; in data set [8], < 0.21; in [9], 0.34; in data set [10] it was 0.89. The concentration for half-maximal inhibition (IC50) in data set [6] was 7.27 µM; in data set [12], 0.46 µM; in [13] it was 6.46 µM; in data set [16], 18.8 µM; in [17], > 30 µM.
Turning to `NCCCNCCCCNCc1ccc(OC2=CC(=O)c3ccccc3C2=O)cc1`, the selectivity ratio is 12.8 in data set [5], < 0.31 in data set [8], 0.18 in data set [9] and 1.28 in data set [10]. Besides, the IC50 in data set [6] is 7.17 µM; in data set [12], 0.72 µM; in [13], 9.18 µM; in [16], 52.2 µM; in data set [17], > 30 µM.
As to `NCCCNCCCCNCc1ccc(OC2=CC(=O)c3cc4ccccc4cc3C2=O)cc1`, the Activity in [3] is 36%. The selectivity ratio was 27.4 in data set [5], 0.41 in data set [8], 0.16 in [9] and 2.01 in data set [10]. Further, the 50% inhibitory concentration (IC50) came to 3.13 µM in data set [6]; 0.23 µM in [12]; 6.29 µM in data set [13]; 39.4 µM in data set [16]; 15.4 µM in [17]. Also, the outcome in data set [11] was inactive.
In the case of `CCCCCCCCCCCCCCCCOP(=O)([O-])OCC[N+](C)(C)C` [MILTEFOSINE], the selectivity ratio in data set [10] is 462. In addition, in data set [13], the IC50 stood at 143 µM.
Consider `O=C(Cn1ccnc1[N+](=O)[O-])NCc1ccccc1` [BENZNIDAZOLE], for which, in data set [13], the IC50 was > 384 µM.
Turning to `NCCCCNCc1ccc(OC2=CC(=O)c3cc4ccccc4cc3C2=O)cc1`, the Activity in data set [3] was determined as 36%. In addition, the selectivity ratio was determined as 16 in data set [5], 1.56 in [8], 0.3 in [9] and 1.98 in [10]. The IC50 was 2.82 µM in [6]; 0.35 µM in [12]; 5.6 µM in [13]; 18.6 µM in [16]; 3.59 µM in [17]. Moreover, the result in data set [11] was inactive.
Turning to `O=C1C=C(Oc2ccccc2)C(=O)c2ccccc21`, in data set [3], the Activity is 51%. For the same compound, the selectivity ratio was found to be 74 in [5], 8 in data set [8], 4.7 in [9] and 4.7 in data set [10]. Besides, the concentration for half-maximal inhibition (IC50) worked out at 1.26 µM in data set [16] and 0.74 µM in [17].
Regarding `NCCCNCCCCNCCCNCc1ccc(OC2=CC(=O)c3cc4ccccc4cc3C2=O)cc1`, the selectivity ratio is 22.5 in data set [5], 0.45 in [8], 0.21 in data set [9] and 2.15 in data set [10]. The IC50 is 3.35 µM in [6]; 0.32 µM in data set [12]; 7.21 µM in data set [13]; 34.8 µM in data set [16]; 16.1 µM in data set [17].

For the origin of these results see ChEMBL document CHEMBL2176892, “Conjugation of quinones with natural polyamines: toward an expanded antitrypanosomatid profile” (J Med Chem, 2012).
